Test results reported in paper PMC11666850, “Development and evaluation of deuterated [^18F]JHU94620 isotopologues for the non-invasive assessment of the cannabinoid type 2 receptor in brain” (EJNMMI Radiopharmacy and Chemistry, 2024).
Like-named read-outs stand apart in the source and are kept apart here.

How the values were obtained:
in vitro = in vitro ADME; settings: microsomes, pH 7.4
Experimental: For microsomal incubations liver microsomes from human (HLM, 50 donors, 20 mg/mL) and rat (RLM, Sprague Dawley, 20 mg/mL) were purchased from Thermo Fisher Scientific GmbH (Dreieich, Germany). Testosterone and β-nicotinamide adenine dinucleotide 2′-phosphate reduced tetrasodium salt (NADPH) were purchased from Sigma-Aldrich (Merck KGaA, Darmstadt, Germany) and Dulbecco’s PBS (DPBS) (without Ca^2+ and Mg^2+) was purchased from Biochrom GmbH (Berlin, Germany). Analyses of samples for comparison of radiometabolite patterns were performed by radio-HPLC using method B, for determination of time dependency of the metabolic depletion using method C.
The final concentrations are given in brackets. […] The mixtures were vortexed and shaken gently at 37 °C using the BioShake iQ (QUANTIFOIL Instruments, Jena, Germany) for 5, 10, 15, 30, 45, and 60 min (for HLM) or 15, 30, 45, and 60 min (for RLM). […] The supernatants were separated and analyzed by radio-HPLC to determine the fractions of unchanged [^18F]JHU94620-d8. Efficiencies of extracted activity were determined as described in “Quantification of radiometabolites”. […]
To determine the metabolic stability in HLM and RLM, both the natural logarithm of the determined unchanged percentage of [^18F]JHU94620-d8 was plotted versus incubation time, which allowed the calculation of the in vitro half-lives as described previously (Chai et al. [2022]).

hCB2R(D80N) [1] = target: T1, hCB2R(D80N) (Homo sapiens, UniProt P34972, D80N)
hCB2R(D80N) [2] = target: T1, hCB2R(D80N); settings: female, Wistar, rat, in vivo
Experimental: The dynamic biodistribution of the radiotracer in the lower body of rats was assessed by small animal PET (Nanoscan, Mediso, Hungary) over 60 min with a subsequently T1-weighted MR. Anaesthetized (2% isoflurane, carrier gas mixture of 40% air and 60% O2) male Wistar rats (body weight: 205–308 g, age: 8–10 weeks, no gender-specific differences were taken into account) were kept during imaging on a heated animal bed to sustain body temperature and were pretreated with vehicle (DMSO:Kolliphore EL:0.9% saline, 1:2:7), JHU94620-d8 (1.5 mg kg^−1 bodyweight) or with GW405833 (5 mg kg^−1 bodyweight) 5 min prior tracer application ([^18F]JHU94620-d8: 7.7–28.2 MBq, 0.4 to 3.2 nmol kg^−1 bodyweight), whereby all injections were administered intravenously. For the evaluation of the hCB2R-specific binding of the radiotracer in the brain, female Wistar rats (n = 6, 253–269 g, age: 8 month) were used carrying stereotactically injected constructs of AAV2/7-CaMKII0.4-intron-hCB2R(D80N) in the right striatum and AAV2/7-CaMKII0.4-intron-3flag-eGFP in the control/contralateral striatum (Vandeputte et al. [2011]). 21–26 MBq corresponding to 0.2 to 2.0 nmol kg^−1 bodyweight radiotracer were injected, whereas in displacement studies 5 mg kg^−1 bodyweight GW405833 was administered 20 min after the radiotracer (each n = 3). The PET scans were performed six months after the stereotactic injections of the AAV2/7-constructs.
The acquisitions were performed in normal mode and a coincidence mode 1–5. For subsequent dynamic reconstructions list mode data were sorted into sinograms (12 × 10 s, 6 × 30 s, 5 × 60 s and 10 × 300 s). The frames were reconstructed by Ordered Subset Expectation Maximization applied to 3D (OSEM3D) sinograms corrected for decay and attenuation (4 iterations, 6 subsets and a voxel size of 0.4 mm^3) with the Nucline software v2.01 (Mediso, Budapest, Hungary). Analyses of reconstructed studies were performed with PMOD software (v4.205, PMOD Technologies LLC, Fällanden, Switzerland) and results are expressed in standardized uptake values (SUVs) or normalized to a reference region (SUVr).
From the wildtype rats used for in vivo metabolism studies a hematocrit content of 0.56 ± 0.04 (n = 11) was determined by a 5 min centrifugation of 50 µl blood in a hematocrit centrifuge at 500 g. The free plasma fraction (fp) of [^18F]JHU94620-d8 was determined gravimetrically by ultrafiltration of 100 µl rat plasma samples incubated for 5, 15, 30 and 60 min at 37 °C for 20 min at 14,000 g utilizing Nanosep® centrifugal filters (10 kDa, Pall Laboratory, USA). The brain PET images were co-registered to the PMOD integrated Px Rat (W. Schiffer) T2 MR template and the brain stem, cerebellum, left cortex and left midbrain region from the corresponding brain atlas were used for the determination of the regional TACs. Due to high spillover signals from the hCB2R(D80N) expressing region not all provided atlas regions could be evaluated. Subsequently, the total tissue distribution (VT) was estimated by 2-tissue compartment modelling. For correction of the TACs, an averaged image-derived input function (pIDIF, plasma-to-whole blood ratio corrected), determined in biodistribution studies and the parent fraction derived from metabolism studies in Wistar rats (Watabe fit) and pIDIF (3-exponential fit) were integrated into the modelling process. The binding potential was estimated by a simplified reference tissue modelling (SRTM) using the cerebellar region as reference. The parametric maps were generated with the PXMOD module.

[3] = female, Wistar, rat, in vivo, 60 min

T1 sequence (P34972 whole entry D80N): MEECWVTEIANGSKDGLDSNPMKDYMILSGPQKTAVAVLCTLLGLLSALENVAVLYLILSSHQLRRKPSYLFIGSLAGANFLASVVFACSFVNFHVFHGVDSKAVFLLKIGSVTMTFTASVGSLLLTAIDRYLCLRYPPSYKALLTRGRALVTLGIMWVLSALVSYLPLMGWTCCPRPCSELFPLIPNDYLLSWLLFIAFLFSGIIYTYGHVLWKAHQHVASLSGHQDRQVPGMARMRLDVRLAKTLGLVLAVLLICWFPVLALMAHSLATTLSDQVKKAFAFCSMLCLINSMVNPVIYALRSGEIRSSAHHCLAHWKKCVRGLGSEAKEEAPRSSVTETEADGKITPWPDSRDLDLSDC

[2H]C([2H])([18F])C([2H])([2H])C([2H])([2H])C([2H])([2H])n1c(C)c(C)s/c1=N\C(=O)C1C(C)(C)C1(C)C [[^18F]JHU94620-d8]
half-life (in vitro; Sprague Dawley, rat): 10.8 ± 2.4 min
half-life (in vitro; human): 2.1 ± 0.7 min
BPND in the hCB2R(D80N) region (hCB2R(D80N) [1]; SRTM, cerebellar region as reference): 26
reduction of AUC20-60min when normalized to the cerebellum (hCB2R(D80N) [1]; after injection of GW405833, compared to the control group): 61%
TAC peak, potential reference regions (contralateral and cerebellum) (hCB2R(D80N) [1]; female, Wistar, rat, in vivo): about 3 SUVmean
VT in the brain region bearing the hCB2R(D80N) overexpression (hCB2R(D80N) [1]; female, Wistar, rat, in vivo): 320 ± 135 mL ccm^−1
VT in the other investigated brain regions (hCB2R(D80N) [1]; female, Wistar, rat, in vivo): 5.9-13.8 mL ccm^−1
SUVmean in the cerebellar region at 60 min p.i. (hCB2R(D80N) [1]; [3]): 0.16 ± 0.03 SUVmean
SUVmean in the contralateral region at 60 min p.i. (hCB2R(D80N) [1]; [3]): 0.8 ± 0.3 SUVmean
AUC20-60min (CI95%), hCB2R D80N-to-Cerebellum (hCB2R(D80N) [1]; human, in vivo): 1128 (1058 to 1198) SUVr ∙ min
AUC20-60min (CI95%), hCB2R D80N-to-Contralateral (hCB2R(D80N) [1]; human, in vivo): 291 (226 to 355) SUVr ∙ min
AUC, Cerebellum (hCB2R(D80N) [1]; human, in vivo): 30 ± 4 SUV ∙ min
AUC, Contralateral (hCB2R(D80N) [1]; human, in vivo): 74 ± 16 SUV ∙ min
AUC, hCB2R(D80N) (hCB2R(D80N) [1]; human, in vivo): 412 ± 90 SUV ∙ min
AUC20-60min (CI95%), hCB2R D80N-to-Cerebellum (hCB2R(D80N) [1]; human, in vivo, iv, 5 mg/kg): 435 (367 to 502) SUVr ∙ min
AUC20-60min (CI95%), hCB2R D80N-to-Contralateral (hCB2R(D80N) [1]; human, in vivo, iv, 5 mg/kg): 272 (233 to 311) SUVr ∙ min
TAC peak value, Cerebellum (hCB2R(D80N) [2]): 2.8 ± 0.2 SUVmean
TAC peak value, Contralateral (hCB2R(D80N) [2]): 3.3 ± 0.5 SUVmean
Time-to-peak, Cerebellum (hCB2R(D80N) [2]): 2.5 min
Time-to-peak, Contralateral (hCB2R(D80N) [2]): 3.5 min
Time-to-peak, hCB2R(D80N) (hCB2R(D80N) [2]): 10 min
VT of hCB2R(D80N) region, times higher than other investigated brain regions (hCB2R(D80N) [2]): up to 23 times
SUVr60min hCB2R(D80N)-to-Cerebellum (hCB2R(D80N) [2]; 60 min): 47 ± 4
SUVr60min hCB2R(D80N)-to-Contralateral (hCB2R(D80N) [2]; 60 min): 10 ± 4
